Results: patent publication US20210137941A1 (ZARODEX THERAPEUTICS LIMITED, priority 2018, published 2021)
“And” between values parts separate entries of the source, which are not always exact repeats. Equal values may be shown once. “Also recorded” adds a separate entry of the source.

Key:
[1] = system: Immunoglobulin levels (IgG, IgA and IgM); assay: Referred clozapine patients (Immunology clinic): serum immunoglobulins; type: in vivo, human
[2] = system: Immunoglobulin levels (IgG, IgA and IgM); assay: First observational study: serum immunoglobulin levels by nephelometry, clozapine vs clozapine-naive patients; type: in vivo, human
[3] = 13 referred patients on clozapine
[4] = 13 referred patients, clozapine 200-750 mg, duration >4 to 21 years (two had stopped), one line per patient
[5] = sub-group A: all diagnoses, all smoking, possible secondary causes not excluded, n=123
[6] = sub-group A: all diagnoses, all smoking, possible secondary causes not excluded, n=123, listed as clozapine
[7] = sub-group B: all diagnoses, all smoking, possible secondary causes excluded, n=94
[8] = sub-group C: schizophrenia diagnoses only, secondary causes excluded, n=87

Structure (SMILES): CN1CCN(C2=Nc3cc(Cl)ccc3Nc3ccccc32)CC1 [Clozapine, clozapine]
- admitted to hospital with infection (clozapine group (vs 0.06 controls)): 0.12 per patient year
- Admission frequency in 12-month period, infection-related: admissions (clozapine-treated patients): 15
- Admission frequency in 12-month period, infection-related: patients (clozapine-treated patients): 10 patients
- mean IgA, referred patients [1, 3]: 0.34 g/L
- mean IgG, referred patients [1, 3]: 3.6 g/L
- mean IgM, referred patients [1, 3]: 0.21 g/L
- serum IgA, individual referred patients [1, 4]: IgA 0.54 g/L and <0.22 g/L (6×) and IgA 0.49 g/L and IgA 0.38 g/L and undetect- and IgA 0.26 g/L and IgA 0.81 g/L and IgA 0.63 g/L
- serum IgG, individual referred patients [1, 4]: IgG 4.8 g/L and <1.34 g/L (2×) and IgG 5.24 g/L and IgG 2.68 g/L and IgG 2.98 g/L and IgG 1.2 g/L and IgG 3.3 g/L and IgG 2.38 g/L and IgG 4.24 g/L and IgG 6.65 g/L and IgG 5.61 g/L and IgG 4.79 g/L
- serum IgM, individual referred patients [1, 4]: IgM 0.3 g/L and <0.17 g/L (7×) and 0.41 g/L (2×) and 0.23 g/L and 0.07 g/L and 0.18 g/L
- serum IgG, individual referred patients ([1]; 13 referred patients, clozapine 200-750 mg, duration >4 to 21 years (two had stopped), one line per patient, listed as clozapine): 3.3 g/L
- serum IgG post-discontinuation of clozapine ([1]; FIG. 5, gradual recovery over 3 years): 5.95 g/L
- serum IgG at discontinuation of clozapine ([1]; FIG. 5, start of recovery): 3.5 g/L
- IgA and IgM following cessation of clozapine ([1]; FIG. 5 / one patient over 24 months): without clear improvement; also recorded: remained low
- serum IgM after stopping clozapine ([1]; one patient, 24 months after clozapine cessation): 0.49 after 24 months
- serum IgG after stopping clozapine, intermediate value ([1]; one patient, within 24 months after cessation): 4.8 g/L
- % of patients with Serum IgM <0.3 g/L ([2]; human, in vivo): 12.3%
- concentrations/distribution of IgG, IgA and IgM vs clozapine-naive control group ([2]; human, in vivo): significantly reduced concentrations; also recorded: leftward shift
- association of longer duration of therapy with serum IgG ([2]; p 0.014, not observed with alternative antipsychotic drugs, FIG. 2): lower serum IgG levels
- % of patients with Serum IgA <0.5 g/L (Reference range 0.8-4.0 g/L) [2, 5]: 1.6%
- % of patients with Serum IgA <0.6 g/L [2, 5]: 2.4%
- % of patients with Serum IgA <0.7 g/L [2, 5]: 6.5%
- % of patients with Serum IgA <0.8 g/L (below reference range) [2, 5]: 13.0%
- % of patients with Serum IgG <3 g/L (Reference range 6-16 g/L) [2, 5]: 0.8%
- % of patients with Serum IgG <4 g/L [2, 5]: 1.6%
- % of patients with Serum IgG <5 g/L [2, 5]: 3.3%
- % of patients with Serum IgG <6 g/L (below reference range) [2, 5]: 9.8%
- % of patients with Serum IgM <0.2 g/L (Reference range 0.5-1.9 g/L) [2, 5]: 8.1%
- % of patients with Serum IgM <0.3 g/L [2, 5]: 16.3%
- % of patients with Serum IgM <0.4 g/L [2, 5]: 29.3%
- % of patients with Serum IgM <0.5 g/L (below reference range) [2, 5]: 38.2%
- % of patients with Serum IgA <0.8 g/L (below reference range) [2, 6]: 13.0% and 13.1%
- % of patients with Serum IgG <6 g/L (below reference range) [2, 6]: 9.8%
- % of patients with Serum IgM <0.5 g/L (below reference range) [2, 6]: 38.2%
- % of patients with Serum IgA <0.5 g/L (Reference range 0.8-4.0 g/L) [2, 7]: 2.1%
- % of patients with Serum IgA <0.6 g/L [2, 7]: 2.1%
- % of patients with Serum IgA <0.7 g/L [2, 7]: 6.4%
- % of patients with Serum IgA <0.8 g/L (below reference range) [2, 7]: 13.8%
- % of patients with Serum IgG <3 g/L (Reference range 6-16 g/L) [2, 7]: 1.1%
- % of patients with Serum IgG <4 g/L [2, 7]: 1.1%
- % of patients with Serum IgG <5 g/L [2, 7]: 2.1%
- % of patients with Serum IgG <6 g/L (below reference range) [2, 7]: 8.4%
- % of patients with Serum IgM <0.2 g/L (Reference range 0.5-1.9 g/L) [2, 7]: 5.3%
- % of patients with Serum IgM <0.3 g/L [2, 7]: 12.8%
- % of patients with Serum IgM <0.4 g/L [2, 7]: 26.6%
- % of patients with Serum IgM <0.5 g/L (below reference range) [2, 7]: 34.0%
- % of patients with Serum IgA <0.5 g/L (Reference range 0.8-4.0 g/L) [2, 8]: 2.3%
- % of patients with Serum IgA <0.6 g/L [2, 8]: 3.5%
- % of patients with Serum IgA <0.7 g/L [2, 8]: 6.9%
- % of patients with Serum IgA <0.8 g/L (below reference range) [2, 8]: 14.9%
- % of patients with Serum IgG <3 g/L (Reference range 6-16 g/L) [2, 8]: 1.2%
- % of patients with Serum IgG <4 g/L [2, 8]: 1.2%
- % of patients with Serum IgG <5 g/L [2, 8]: 2.3%
- % of patients with Serum IgG <6 g/L (below reference range) [2, 8]: 9.2%
- % of patients with Serum IgM <0.2 g/L (Reference range 0.5-1.9 g/L) [2, 8]: 5.8%
- % of patients with Serum IgM <0.3 g/L [2, 8]: 12.6%
- % of patients with Serum IgM <0.4 g/L [2, 8]: 27.6%
- % of patients with Serum IgM <0.5 g/L (below reference range) [2, 8]: 35.6%
- % of patients with Serum IgA <0.5 g/L (Reference range 0.8-4.0 g/L) ([2]; sub-group D: smokers only, secondary causes excluded, n=57): 3.5%
